Measurements taken from article PMC10223987 (Viruses, 2023).
Where a name gives a salt, the structure may show the parent alone. Read-outs that look alike come from different tables or passages of the source.

Columns and labels:
[1] = tested on: DSP1-7 and DSP8-11 co-expressing 293FT cells; test: cells; format: cell-based; details: TMPRSS2-independent / DSP reassociation control; read-out: CoTF Assay IC50
[2] = target: thrombin (Homo sapiens, UniProt P00734); test: Thrombin enzyme inhibition assay; format: biochemical
[3] = tested on: ACE2/TMPRSS2-dependant SARS-CoV-2 S protein-mediated membrane fusion; test: microbe, parasite or virus in culture; format: cell-based
[4] = target: TMPRSS2 (Homo sapiens, UniProt O15393); test: TMPRSS2 enzyme inhibition assay (fluorescence-quenched peptide substrate); format: biochemical; details: enzymatic assay
TMPRSS2, sequence (O15393 whole entry): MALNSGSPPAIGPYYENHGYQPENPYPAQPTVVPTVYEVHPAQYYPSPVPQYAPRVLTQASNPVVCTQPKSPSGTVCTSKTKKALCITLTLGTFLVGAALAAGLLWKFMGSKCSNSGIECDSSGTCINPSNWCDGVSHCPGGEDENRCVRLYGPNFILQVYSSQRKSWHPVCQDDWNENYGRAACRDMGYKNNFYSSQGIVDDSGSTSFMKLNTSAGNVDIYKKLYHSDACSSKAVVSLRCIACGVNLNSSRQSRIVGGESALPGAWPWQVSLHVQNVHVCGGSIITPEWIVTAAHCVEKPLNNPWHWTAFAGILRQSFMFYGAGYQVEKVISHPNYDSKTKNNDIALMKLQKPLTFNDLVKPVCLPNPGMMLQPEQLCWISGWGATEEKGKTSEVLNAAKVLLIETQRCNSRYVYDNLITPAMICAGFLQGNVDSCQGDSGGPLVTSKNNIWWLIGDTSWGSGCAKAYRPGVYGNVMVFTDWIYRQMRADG

[5] = target: factor Xa (Homo sapiens, UniProt P00742); test: Factor Xa enzyme inhibition assay; format: biochemical
factor Xa, sequence (P00742 235-488 limits assumed): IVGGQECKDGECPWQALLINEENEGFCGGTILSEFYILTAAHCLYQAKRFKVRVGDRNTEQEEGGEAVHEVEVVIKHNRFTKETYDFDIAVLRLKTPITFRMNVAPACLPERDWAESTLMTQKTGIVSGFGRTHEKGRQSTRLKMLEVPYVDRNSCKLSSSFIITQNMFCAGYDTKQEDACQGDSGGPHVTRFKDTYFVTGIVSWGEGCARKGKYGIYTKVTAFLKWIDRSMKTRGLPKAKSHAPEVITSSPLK
factor Xa, sequence (P00742 41-179 partner limits assumed): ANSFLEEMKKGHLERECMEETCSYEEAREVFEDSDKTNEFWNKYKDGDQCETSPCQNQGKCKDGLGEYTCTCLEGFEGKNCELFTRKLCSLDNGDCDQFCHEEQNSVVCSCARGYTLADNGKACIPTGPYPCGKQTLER

[6] = tested on: SARS-CoV-2 pseudovirus; test: microbe, parasite or virus in culture; format: cell-based; details: Severe acute respiratory syndrome-related coronavirus; for inhibition at 100 µM: VeroE6/TMPRSS2, read-out: SARS-CoV-2 Pseudovirus % Inhibition; for IC50: VeroE6/TMPRSS2, read-out: SARS-CoV-2 Pseudovirus IC50
[7] = tested on: VeroE6-TMPRSS2 cells; test: Cell toxicity assay (Celltiter-Glo); format: cell-based; details: 24 h, read-out: Cell Viability Inhibition IC50
[8] = cited from earlier work
[9] = Severe acute respiratory syndrome coronavirus 2, read-out: S2TA Assay IC50

Structure (SMILES) | melting point | IC50 [1] | IC50 [2] | IC50 [3, 9] | IC50 [4] | IC50 [5] | fold less potential factor Xa inhibitor relative to pentamidine ([5]; relative to pentamidine) | inhibition at 100 µM [6] | IC50 [6] | IC50 [7] | IC50 ([3]; read-out: S2TA Assay IC50) | plasma half-life [8]
N=C(N)c1ccc2nc(-c3cccc(-c4nc5ccc(C(=N)N)cc5[nH]4)n3)[nH]c2c1 (as salt: HCl) [Compound 10] | > 300 °C | – | – | – | – | – | – | – | – | – | – | –
N=C(N)c1ccc(-c2ccc(-c3ccc(C(=N)N)cc3)o2)cc1 [Compound 7] | – | > 100 µM | 79.1 µM | > 100 µM | 82.7 µM | 30.9 µM | 5 fold | 2.66% | > 100 µM | > 100 µM | – | –
N=C(N)c1ccc2nc(-c3cccc(-c4nc5ccc(C(=N)N)cc5[nH]4)n3)[nH]c2c1 [Compound 10] | – | 37.8 µM | 0.921 µM | – | – | 5.93 µM | – | – | – | – | – | –
CC(C)NC(=N)c1ccc2nc(-c3cccc(-c4nc5ccc(C(=N)NC(C)C)cc5[nH]4)n3)[nH]c2c1 [Compound 11] | – | > 100 µM | > 1 µM | > 100 µM | > 10 µM | > 1 µM | – | 27% | > 100 µM | > 100 µM | – | –
N=C(N)c1ccc2nc(-c3cccc(-c4nc5ccc(C(=N)N)cc5[nH]4)c3)[nH]c2c1 [Compound 12] | – | > 100 µM | 0.862 µM | > 100 µM | 4.89 µM | 34.1 µM | – | 17.1% | > 100 µM | > 100 µM | – | –
N=C(N)c1ccc2nc(-c3ccc(-c4cccc(-c5ccc(-c6nc7ccc(C(=N)N)cc7[nH]6)cc5)n4)cc3)[nH]c2c1 [Compound 13] | – | 37 µM | 0.929 µM | 13.7 µM | 72.4 µM | 4.89 µM | – | 20.5% | > 100 µM | > 100 µM | – | –
CC(C)NC(=N)c1ccc2nc(-c3ccc(-c4cccc(-c5ccc(-c6nc7ccc(C(=N)NC(C)C)cc7[nH]6)cc5)n4)cc3)[nH]c2c1 [Compound 14] | – | 31 µM | 2.25 µM | 16.9 µM | > 100 µM | > 10 µM | – | 77.4% | 83.7 µM | > 100 µM | 10.9 µM | –
N=C(N)c1ccc2cc(OC(=O)c3ccc(N=C(N)N)cc3)ccc2c1 [Nafamostat, nafamostat, reference compound] | – | – | 0.0341 µM | – | – | 1.74 µM | – | – | – | – | – | less than 1 min
N=C(N)c1ccc(OCCCCCOc2ccc(C(=N)N)cc2)cc1 [Pentamidine, pentamidine, reference compound] | – | > 100 µM | 1.51 µM | 32.3 µM | 3.98 µM | 6.22 µM | – | 69.5% | 45 µM | > 100 µM | – | –
CN(C)C(=O)COC(=O)Cc1ccc(OC(=O)c2ccc(NC(=N)N)cc2)cc1 [camostat] | – | – | – | – | – | – | – | – | – | – | – | 23.1 min
